The test system of the assay is cyprid larvae of the barnacle species Balanus amphitrite. The assay is described as follows: Barnacle settlement inhibition test, enzymes in solution. Format: in vivo. The following applies: reference compound in solution; concentration at which 50 % settlement reduction takes place. An excerpt:
The barnacle settlement test determines settlement inhibitory activity of biocidal compounds. For this test mass reared cyprid larvae of the barnacle species Balanus amphitrite are used. Adult barnacles, kept under standardised conditions, are forced to produce naupliar larvae that are collected and grown up separately at constant temperature and a fixed light:dark period. When larvae reach the cyprid stage, which is the settling phase, they are collected and set apart prior to testing.
Test compounds are usually tested in a range of concentrations prepared directly in seawater or after pre-dissolution in a suitable solvent. Settlement tests are carried out in polystyrene multiwell plates. Wells contain either 1 mL of a test solution or 1 mL of a control solution. Plates are incubated for 24 - 48 hours under constant temperature and light:dark regime to allow settlement and metamorphosis of the cyprids.
After incubation the wells are screened and numbers of settled and non-settled larvae counted using a stereo microscope. Numbers of settled larvae are expressed as a percentage of total larvae in the well. Average % settlement is calculated in four replicates. Subsequently a settlement response curve in relation to substance concentration is drawn and an EC50 value, concentration at which 50 % settlement reduction takes place, calculated. […]

EC50 value data for 1 molecule are collected here from EP1661955A1, “Antifouling coating comprising a polymer with functional groups bonded to an enzyme” (Nederlandse Organisatie voor …, priority 2004, dated 2006).

Molecules are shown by their SMILES. In brackets after ≈: the same amount, converted by molar mass.

For the molecule `CCCCCCCCn1sc(Cl)c(Cl)c1=O` [Seanine 211], the EC50 value was found to be 0.4 µg/mL (≈ 1.42 µM).
